Columns and labels:
[1] = wn = mass fraction of the nth substance listed; conditions: 101 kPa, Liquid; for mass density: Pycnometric method; for viscosity: Capillary tube (Ostwald / Ubbelohde) method
[2] = 101 kPa, Liquid; for viscosity: Capillary tube (Ostwald / Ubbelohde) method
[3] = mn = molality of the nth substance listed, in mol/kg; conditions: 101 kPa, Liquid, m2 = 0; for viscosity: Capillary tube (Ostwald / Ubbelohde) method

O=C[C@H](O)[C@@H](O)[C@H](O)[C@H](O)CO [D-glucose] + O
[1]
Conditions | mass density, w1 = 0.05 [kg/m3] | mass density, w1 = 0.1 [kg/m3] | mass density, w1 = 0.15 [kg/m3] | mass density, w1 = 0.2 [kg/m3] | viscosity, w1 = 0.05 [mPa·s] | viscosity, w1 = 0.1 [mPa·s] | viscosity, w1 = 0.15 [mPa·s] | viscosity, w1 = 0.2 [mPa·s]
293.15 K | 1016.28 | 1034.79 | 1053.29 | 1072.41 | – | – | – | –
298.15 K | 1014.69 | 1033.15 | 1051.61 | 1070.31 | 0.9767 | 1.12 | 1.316 | 1.67
303.15 K | 1013.08 | 1031.5 | 1049.92 | 1068.17 | 0.8605 | 0.9907 | 1.147 | 1.491
308.15 K | 1011.47 | 1029.84 | 1048.37 | 1065.97 | 0.7697 | 0.8844 | 1.018 | 1.345
313.15 K | 1009.85 | 1028.17 | 1046.62 | 1063.76 | 0.6945 | 0.7901 | 0.8925 | 1.21
318.15 K | – | 1026.48 | 1044.93 | 1061.52 | 0.6334 | 0.7223 | 0.8097 | 1.112

O [water]
[2]
Conditions | viscosity [mPa·s]
298.15 K | 0.8903
303.15 K | 0.7973
308.15 K | 0.719
313.15 K | 0.6526
318.15 K | 0.5972

Conditions | mass density [kg/m3]
[2], 308.15 K, Pycnometric method | 994.07

O [water] + C[C@@H](O)[C@H](N)C(=O)O
[3]
Conditions | viscosity [mPa·s]
298.15 K | 0.8903
303.15 K | 0.7973
308.15 K | 0.719
313.15 K | 0.6526
318.15 K | 0.5972

Conditions | mass density [kg/m3]
[3], 308.15 K, Pycnometric method | 994.07
